From BindingDB's records for doi:10.7270/Q2H993NJ (University of Pittsburgh, 2010) come the findings set out here.

Values joined by “and” are separate entries in the source; they are usually repeats but may differ in a detail not shown here. Equal entries are not always repeated.

For this test, the target named is Furin (Homo sapiens, UniProt P09958). Put plainly: human furin inhibition, concentration series – biochemical, fluorescence intensity, IC50, dose response (AID 463182).
Chain of Furin (P09958 whole entry): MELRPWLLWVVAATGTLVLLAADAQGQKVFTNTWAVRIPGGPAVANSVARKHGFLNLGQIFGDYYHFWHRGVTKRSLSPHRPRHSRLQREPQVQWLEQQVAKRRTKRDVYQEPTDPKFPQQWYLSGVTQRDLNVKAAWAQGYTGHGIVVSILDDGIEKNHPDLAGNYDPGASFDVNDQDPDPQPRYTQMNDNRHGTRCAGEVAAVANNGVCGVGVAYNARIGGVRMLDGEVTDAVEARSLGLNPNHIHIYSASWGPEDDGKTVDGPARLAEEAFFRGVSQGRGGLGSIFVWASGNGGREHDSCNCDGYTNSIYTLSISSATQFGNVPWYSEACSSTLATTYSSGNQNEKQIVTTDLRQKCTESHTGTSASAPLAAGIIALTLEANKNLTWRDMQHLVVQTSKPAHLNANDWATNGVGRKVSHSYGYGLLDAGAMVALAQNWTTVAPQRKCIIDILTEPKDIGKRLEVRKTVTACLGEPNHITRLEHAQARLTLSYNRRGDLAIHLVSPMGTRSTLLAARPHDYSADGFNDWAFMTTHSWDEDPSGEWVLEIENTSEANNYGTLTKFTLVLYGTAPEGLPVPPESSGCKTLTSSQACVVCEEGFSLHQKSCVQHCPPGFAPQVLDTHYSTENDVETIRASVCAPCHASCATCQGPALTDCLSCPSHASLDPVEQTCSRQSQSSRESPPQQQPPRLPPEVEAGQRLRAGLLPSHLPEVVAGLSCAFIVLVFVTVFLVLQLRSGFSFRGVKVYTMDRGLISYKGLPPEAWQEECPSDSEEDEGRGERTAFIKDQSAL
In turn, `CCCOP(=O)(c1ccc(N(C)C)cc1)C(Nc1ccccc1)c1ccc(N(C)C)cc1` (centres undefined) returned a half-inhibitory concentration (IC50) above 50 µM.
As for `CC1(C)CC(=O)C(=CNn2cnc3ccccc3c2=O)C(=O)C1` [5,5-Dimethyl-2-[(4-oxo-4H-quinazolin-3-ylamino)-methylene]-cyclohexane-1,3-dione], the half-inhibitory concentration (IC50) is above 50 µM.
For the compound `CCN1CCS/C1=C\C=C\C1=[N+](CC)CCS1` [3-ethyl-2-[(E,3E)-3-(3-ethylthiazolidin-2-ylidene)prop-1-enyl]-2-thiazolin-3-ium;iodide], the IC50 is 33.8 µM and 31.5 µM.
Under `Cc1ccccc1-n1c(O)c(C=Nc2ccc(N(C)C)cc2)c(=O)[nH]c1=O` [SMR000102641] stands above 50 µM.
Regarding `Cc1cccc(NC=C2C(=O)CC(C)(C)CC2=O)n1`, the half-maximal inhibitory concentration (IC50) was above 50 µM.
Consider `CC1(C)CC(=O)C(=CNc2cccnc2)C(=O)C1`, for which the half-maximal inhibitory concentration (IC50) was above 50 µM.
In turn, `CSc1nc(N)c(N=Nc2ccc([As](=O)(O)O)cc2)c(O)n1` [[4-[(2Z)-2-(4-azanyl-2-methylsulfanyl-6-oxidanylidene-pyrimidin-5-ylidene)hydrazinyl]phenyl]arsonic acid] returned a half-inhibitory concentration (IC50) above 50 µM.
`Cc1cccc(-n2c(O)c(C=CC=Nc3ccccc3)c(=O)[nH]c2=O)c1` [(5Z)-1-(3-methylphenyl)-5-[(E)-3-phenylazanylprop-2-enylidene]-1,3-diazinane-2,4,6-trione]: the IC50 is above 50 µM.
`Cc1cccc(C=C2SC(NN=C3CC4CCC3(C)C4(C)C)=NC2=O)c1` (centres undefined) [SMR000159419] yielded a 50% inhibitory concentration (IC50) above 50 µM.
